Patent US10543198B2 (Celgene Quanticel Research, Inc., priority 2014, dated 2020)

What follows are compounds tested against full-length human LSD1 (Homo sapiens (Human), UniProt O60341) (assay: In Vitro Enzyme Inhibition Assay - LSD-1 (TR-FRET)). Settings: 0.1 nM LSD1, H3K4me1-biotin peptide.
Assay type: biochemical
Method: This assay determines the ability of a test compound to inhibit LSD1 demethylase activity.
The enzymatic assay of LSD1 activity is based on Time Resolved-Fluorescence Resonance Energy Transfer (TR-FRET) detection.
The ability of the compounds disclosed herein to inhibit LSD1 activity was quantified and the respective IC50 value was determined.

Compound | IC50
Cc1ccc(-c2nc3cnn(CC4CCNC4)c3cc2-c2ccc(C#N)cc2)cc1 (centres unmarked) [Example 13, 4-[5-(4-methylphenyl)-1-(pyrrolidin-3-ylmethyl)pyrazolo[4,3-b]pyridin-6-yl]benzonitrile] | < 0.1 µM
Cc1ccc(-c2cnc(OC[C@@H]3CCNC3)nc2-c2ccc(C#N)cc2)cc1 [Example 20, 4-[5-(4-methylphenyl)-2-[(3R)-pyrrolidin-3-ylmethoxy]pyrimidin-4-yl]benzonitrile] | < 0.1 µM
N#Cc1ccc(-c2nc(NC[C@H]3CCNC3)ncc2C#CC2CC2)cc1 [Example 26, 4-[5-(2-cyclopropylethynyl)-2-{[(3S)-pyrrolidin-3-ylmethyl]amino}pyrimidin-4-yl]benzonitrile] | < 0.1 µM
N#Cc1ccc(-c2nc(NC[C@H]3CCNC3)ncc2-c2ccc(F)cc2)cc1 [Example 18, 4-[5-(4-fluorophenyl)-2-{[(3S)-pyrrolidin-3-ylmethyl]amino}pyrimidin-4-yl]benzonitrile] | < 0.1 µM
N#Cc1ccc(-c2cc3c(ccn3C[C@H]3CCNC3)nc2N2CCOCC2)cc1 [Example 7, 4-[5-morpholin-4-yl-1-[[(3S)-pyrrolidin-3-yl]methyl]pyrrolo[3,2-b]pyridin-6-yl]benzonitrile] | < 0.1 µM
Cc1ccc(-c2nc3cnn(CC4CCNCC4)c3cc2-c2ccc(C#N)cc2)cc1 [Example 14, 4-[5-(4-methylphenyl)-1-(piperidin-4-ylmethyl)pyrazolo[4,3-b]pyridin-6-yl]benzonitrile] | < 0.1 µM
Cc1ccc(-c2nc3ccn(C[C@H]4CNCCO4)c3cc2-c2ccc(C#N)cc2)cc1 [Example 10, 4-[5-(4-methylphenyl)-1-[[(2R)-morpholin-2-yl]methyl]pyrrolo[3,2-b]pyridin-6-yl]benzonitrile] | < 0.1 µM
Cc1ccc(-c2nc3cnn(C[C@H]4[C@@H]5CNC[C@@H]54)c3cc2-c2ccc(C#N)cc2)cc1 [Example 15, 4-[1-[[(1S,5R)-3-azabicyclo[3.1.0]hexan-6-yl]methyl]-5-(4-methylphenyl)pyrazolo[4,3-b]pyridin-6-yl]benzonitrile] | < 0.1 µM
Cc1ccc(-c2cnc(NC3CCCNC3)nc2-c2ccc(C#N)cc2)cc1 (racemic) [Example 29, (±)-4-[5-(4-methylphenyl)-2-[(piperidin-3-yl)amino]pyrimidin-4-yl]benzonitrile] | < 0.1 µM
N#Cc1ccc(-c2nc(N3CC[C@@H]4CNC[C@@H]4CC3)ncc2-c2ccc(F)cc2)cc1 [Example 24, 4-{2-[(3aR,8aS)-decahydropyrrolo[3,4-d]azepin-6-yl]-5-(4-fluorophenyl)pyrimidin-4-yl}benzonitrile] | < 0.1 µM
Cc1ccc(-c2cnc(N3C[C@H]4CNC[C@H]4C3)nc2-c2ccc(C#N)cc2)cc1 [Example 21, 4-{2-[(3aR,6aS)-octahydropyrrolo[3,4-c]pyrrol-2-yl]-5-(4-methylphenyl)pyrimidin-4-yl}benzonitrile] | < 0.1 µM
N#Cc1ccc(-c2cc3c(ccn3C[C@H]3CCNC3)nc2-c2ccc(F)cc2)cc1 [Example 5, 4-[5-(4-fluorophenyl)-1-[[(3S)-pyrrolidin-3-yl]methyl]pyrrolo[3,2-b]pyridin-6-yl]benzonitrile] | < 0.1 µM
N#Cc1ccc(-c2cc3c(ccn3C[C@H]3CNCCO3)nc2-c2ccc(F)cc2)cc1 [Example 11, 4-[5-(4-fluorophenyl)-1-[[(2R)-morpholin-2-yl]methyl]pyrrolo[3,2-b]pyridin-6-yl]benzonitrile] | < 0.1 µM
Cc1ccc(-c2cnc(N3CCC4CNCC4C3)nc2-c2ccc(C#N)cc2)cc1 (centres unmarked) [Example 22, 4-[5-(4-methylphenyl)-2-{octahydro-1H-pyrrolo[3,4-c]pyridin-5-yl}pyrimidin-4-yl]benzonitrile] | < 0.1 µM
Cc1ccc(-c2cnc(NC[C@H]3CCNC3)nc2-c2ccc(C#N)cc2)cc1 [Example 16, 4-[5-(4-methylphenyl)-2-{[(3S)-pyrrolidin-3-ylmethyl]amino}pyrimidin-4-yl]benzonitrile] | < 0.1 µM
Cc1ccc(-c2nc3ccn(CCCN)c3cc2-c2ccc(C#N)cc2)cc1 [Example 12, 4-[1-(3-aminopropyl)-5-(4-methylphenyl)pyrrolo[3,2-b]pyridine-6-yl]benzonitrile] | < 0.1 µM
Cc1ccc(-c2nc3ccn(C[C@H]4CCNC4)c3cc2-c2ccc(C#N)cc2)cc1 [Example 3, 4-[5-(4-methylphenyl)-1-[[(3S)-pyrrolidin-3-yl]methyl]pyrrolo[3,2-b]pyridin-6-yl]benzonitrile] | < 0.1 µM
Cc1ccc(-c2nc3ccn(C[C@@H]4CCNC4)c3cc2-c2ccc(C#N)cc2)cc1 [Example 1, 4-[5-(4-methylphenyl)-1-[[(3R)-pyrrolidin-3-yl]methyl]pyrrolo[3,2-b]pyridin-6-yl]benzonitrile] | < 0.1 µM
Cc1ccc(-c2cnc(N3CC[C@@H]4CNC[C@@H]4CC3)nc2-c2ccc(C#N)cc2)cc1 [Example 23, 4-{2-[(3aR,8aS)-decahydropyrrolo[3,4-d]azepin-6-yl]-5-(4-methylphenyl)pyrimidin-4-yl}benzonitrile] | < 0.1 µM
Cc1ccc(-c2cnc(NCC3(F)CCNC3)nc2-c2ccc(C#N)cc2)cc1 (racemic) [Example 28, (±)-4-(2-{[(3-fluoropyrrolidin-3-yl)methyl]amino}-5-(4-methylphenyl)pyrimidin-4-yl)benzonitrile] | < 0.1 µM
N#Cc1ccc(-c2nc(NC[C@H]3CCNC3)ncc2-c2ccc(Cl)cc2)cc1 [Example 19, 4-[5-(4-chlorophenyl)-2-{[(3S)-pyrrolidin-3-ylmethyl]amino}pyrimidin-4-yl]benzonitrile] | < 0.1 µM
N#Cc1ccc(-c2nc(NC[C@H]3CCNC3)ncc2-c2ccc(C(F)(F)F)cc2)cc1 [Example 25, 4-(2-{[(3S)-pyrrolidin-3-ylmethyl]amino}-5-[4-(trifluoromethyl)phenyl]pyrimidin-4-yl)benzonitrile] | < 0.1 µM
N#Cc1ccc(-c2cc3c(ccn3C[C@@H]3CCNC3)nc2Cl)cc1 [Example 2, 4-[5-chloro-1-[[(3R)-pyrrolidin-3-yl]methyl]pyrrolo[3,2-b]pyridin-6-yl]benzonitrile] | 0.1 to 1 µM

Now from value to compound:

IC50 | Compound
< 0.1 µM | Cc1ccc(-c2cc(NCC3CCNC3)nn2-c2ccc(C#N)cc2)cc1 (centres unmarked) [Example 43, 4-[5-(4-methylphenyl)-3-(pyrrolidin-3-ylmethylamino)pyrazol-1-yl]benzonitrile]
< 0.1 µM | Cc1ccc(-c2cc(NC[C@H]3[C@@H]4CNC[C@@H]43)nn2-c2ccc(C#N)cc2)cc1 [Example 47, 4-[3-[[(1S,5R)-3-azabicyclo[3.1.0]hexan-6-yl]methylamino]-5-(4-methylphenyl)pyrazol-1-yl]benzonitrile]
< 0.1 µM | Cc1ccc(-c2cc(NC[C@H]3CCNC3)nn2-c2ccc(C#N)cc2)cc1 [Example 44, 4-[5-(4-methylphenyl)-3-[[(3S)-pyrrolidin-3-yl]methylamino]pyrazol-1-yl]benzonitrile]
< 0.1 µM | Cc1ccc(-c2cnc(N3CCC4(CCNC4)CC3)nc2-c2ccc(C#N)cc2)cc1 [Example 39, 4-(2-{2,8-diazaspiro[4.5]decan-8-yl}-5-(4-methylphenyl)pyrimidin-4-yl)benzonitrile]
< 0.1 µM | Cc1ccc(-c2cc(NC[C@@H]3CCNC3)nn2-c2ccc(C#N)cc2)cc1 [Example 45, 4-[5-(4-methylphenyl)-3-[[(3R)-pyrrolidin-3-yl]methylamino]pyrazol-1-yl]benzonitrile]
< 0.1 µM | Cc1ccc(-c2cnc(NCC3CCNCC3)nc2-c2ccc(C#N)cc2)cc1 [Example 32, 4-[5-(4-methylphenyl)-2-[(piperidin-4-ylmethyl)amino]pyrimidin-4-yl]benzonitrile]
< 0.1 µM | Cc1ccc(-c2cnc(N3CCC4(CCCN4)CC3)nc2-c2ccc(C#N)cc2)cc1 [Example 40, 4-(2-{1,8-diazaspiro[4.5]decan-8-yl}-5-(4-methylphenyl)pyrimidin-4-yl)benzonitrile]
< 0.1 µM | Cc1ccc(-c2cc(NCC3CCNCC3)nn2-c2ccc(C#N)cc2)cc1 [Example 46, 4-[5-(4-methylphenyl)-3-(piperidin-4-ylmethylamino)pyrazol-1-yl]benzonitrile]
< 0.1 µM | Cc1ccc(-c2cnc(NC3CCNCC3)nc2-c2ccc(C#N)cc2)cc1 [Example 30, 4-[5-(4-methylphenyl)-2-[(piperidin-4-yl)amino]pyrimidin-4-yl]benzonitrile]
< 0.1 µM | Cc1ccc(-c2cnc(N3CCC4(CCNCC4)C3)nc2-c2ccc(C#N)cc2)cc1 [Example 36, 4-(2-{2,8-diazaspiro[4.5]decan-2-yl}-5-(4-methylphenyl)pyrimidin-4-yl)benzonitrile]
< 0.1 µM | Cc1ccc(-c2cnc(N3CCC4(CCNC4)C3)nc2-c2ccc(C#N)cc2)cc1 (centres unmarked) [Example 35, 4-(2-{2,7-diazaspiro[4.4]nonan-2-yl}-5-(4-methylphenyl)pyrimidin-4-yl)benzonitrile]

These compounds were tested on THP-1 (AML) cells (assay: LSD1 CD11b Cellular Assay (flow cytometry)). Settings: CD11b expression in THP-1 cells, 4 days incubation.
Assay type: cell-based
Method: To analyze LSD1 inhibitor efficacy in cells, a CD11b flow cytometry assay was performed. LSD1 inhibition induces CD11b expression in THP-1 (AML) cells which can be measured by flow cytometry. […] LSD1 test compounds were serially diluted in DMSO. The dilutions were added to each well accordingly to a final concentration of 0.2% DMSO. The cells were incubated at 37 degrees Celsius in 5% CO2 for 4 days. 250 μL of each well was transferred to a well in a 96 well round bottom plate. The plate was centrifuged at 1200 rpm at 4 degrees Celsius in a Beckman Coulter Alegra 6KR centrifuge for 5 minutes. The media was removed leaving the cells at the bottom of the wells. The cells were washed in 100 μL cold HBSS (Hank's Balanced Salt Solution) plus 2% BSA (Bovine Serum Albumin) solution and centrifuged at 1200 rpm at 4 degrees Celsius for 5 minutes. The wash was removed. […] The cells were centrifuged and washed two times in 100 μl HBSS plus 2% BSA. After the final spin the cells were resuspended in 100 μL HBSS plus 2% BSA containing 1 ug/mL DAPI (4′,6-diamidino-2-phenylindole). The cells were then analyzed by flow cytometry in a BD FACSAria machine. Cells were analyzed for CD11b expression. The percent of CD11b expressing cells for each inhibitor concentration was used to determine an IC50 curve for each compound analyzed.

Compound | IC50
4-[5-(4-methylphenyl)-1-[[(2R)-morpholin-2-yl]methyl]pyrrolo[3,2-b]pyridin-6-yl]benzonitrile [Example 48] | > 10 µM
